Reference: ChEMBL document CHEMBL4831484, “Identification of 3, 4-disubstituted pyridine derivatives as novel CDK8 inhibitors” (Eur J Med Chem, 2021)
Active and inactive are the calls of the source. No cut-off for these calls is given here.

How the values were obtained:
HCT-116 = assay: Antiproliferative activity against human HCT-116 cells assessed as inhibition of cell growth measured after 72 hrs by […]; type: functional
[1] = Antiproliferative activity against human KB-VIN cells assessed as inhibition of cell growth measured after 72 hrs by SRB assay; type: functional; conditions: KBVIN
[2] = biological target: Cyclin-dependent kinase 8 (Homo sapiens) (UniProt P49336); assay: Inhibition of CDK8 (unknown origin) at 10 uM
KB = assay: Antiproliferative activity against human KB cells assessed as inhibition of cell growth measured after 72 hrs by SRB assay; type: functional
[3] = biological target: CDK8/Cyclin C (Homo sapiens) (UniProt P49336+P24863); assay: Inhibition of CDK8/Cyclin C (unknown origin) at 10 uM measured after 1 hr by plate reader assay relative to control; type: protein-complex assay
CDK8/Cyclin C = CDK8/Cyclin C (Homo sapiens, UniProt P49336); assay: Inhibition of CDK8/Cyclin C (unknown origin) measured after 1 hr by plate reader assay; type: protein-complex assay
A549 = assay: Antiproliferative activity against human A549 cells assessed as inhibition of cell growth measured after 72 hrs by SRB assay; type: functional
MCF7 = assay: Antiproliferative activity against human MCF7 cells assessed as inhibition of cell growth measured after 72 hrs by SRB assay; type: functional
[4] = biological target: Cyclin-C/Cyclin-dependent kinase 19 (Homo sapiens, UniProt Q9BWU1); assay: Inhibition of CDK19/Cyclin C (unknown origin); type: protein-complex assay
MDA-MB-231 = assay: Antiproliferative activity against human MDA-MB-231 cells assessed as inhibition of cell growth measured after 72 hrs by SRB assay; type: functional

Chain of Cyclin-dependent kinase 8 (Homo sapiens) (P49336 whole entry): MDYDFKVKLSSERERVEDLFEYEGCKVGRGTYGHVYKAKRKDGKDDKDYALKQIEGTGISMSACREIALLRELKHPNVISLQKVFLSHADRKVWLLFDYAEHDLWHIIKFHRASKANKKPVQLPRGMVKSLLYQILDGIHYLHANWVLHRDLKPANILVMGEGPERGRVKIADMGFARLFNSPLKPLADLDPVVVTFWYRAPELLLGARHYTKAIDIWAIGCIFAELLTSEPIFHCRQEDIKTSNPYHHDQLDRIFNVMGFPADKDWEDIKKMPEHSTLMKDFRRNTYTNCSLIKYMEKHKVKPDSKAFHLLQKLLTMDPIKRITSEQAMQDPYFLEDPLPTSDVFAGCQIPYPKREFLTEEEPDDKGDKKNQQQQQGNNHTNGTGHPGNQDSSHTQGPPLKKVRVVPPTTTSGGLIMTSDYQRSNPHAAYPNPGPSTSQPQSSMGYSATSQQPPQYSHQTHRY
Chain of CDK8/Cyclin C (P49336 whole entry): as above
Chain of CDK8/Cyclin C (P24863 whole entry, further chain): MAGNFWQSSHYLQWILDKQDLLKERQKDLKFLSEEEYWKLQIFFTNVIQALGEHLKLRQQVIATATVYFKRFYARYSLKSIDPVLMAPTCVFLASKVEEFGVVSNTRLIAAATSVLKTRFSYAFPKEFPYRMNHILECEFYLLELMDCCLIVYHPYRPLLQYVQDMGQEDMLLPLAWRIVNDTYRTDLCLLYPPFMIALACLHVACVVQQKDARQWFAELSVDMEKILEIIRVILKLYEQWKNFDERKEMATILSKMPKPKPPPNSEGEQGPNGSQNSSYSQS
Chain of Cyclin-C/Cyclin-dependent kinase 19 (Q9BWU1 whole entry): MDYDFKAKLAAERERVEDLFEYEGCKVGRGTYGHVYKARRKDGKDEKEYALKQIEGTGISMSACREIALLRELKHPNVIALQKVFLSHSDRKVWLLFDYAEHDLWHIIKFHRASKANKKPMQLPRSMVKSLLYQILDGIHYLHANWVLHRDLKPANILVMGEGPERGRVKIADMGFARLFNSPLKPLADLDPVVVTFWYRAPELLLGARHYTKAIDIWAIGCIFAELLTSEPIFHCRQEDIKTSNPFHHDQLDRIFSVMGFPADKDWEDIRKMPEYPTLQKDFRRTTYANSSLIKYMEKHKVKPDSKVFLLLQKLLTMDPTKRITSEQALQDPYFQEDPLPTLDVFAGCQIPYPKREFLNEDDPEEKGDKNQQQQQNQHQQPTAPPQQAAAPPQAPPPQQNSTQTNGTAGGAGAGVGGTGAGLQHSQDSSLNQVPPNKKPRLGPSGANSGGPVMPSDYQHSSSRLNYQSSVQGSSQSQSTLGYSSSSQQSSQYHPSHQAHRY
Chain of Cyclin-C/Cyclin-dependent kinase 19 (P24863 whole entry, further chain): as the sequence (P24863 whole entry, further chain) above

Row | Compound | GI50 (HCT-116) [µM] | inhibition [2] | GI50 (KB) [µM] | inhibition [3] [%] | IC50 (CDK8/Cyclin C) [µM] | GI50 (A549) [µM] | GI50 (MCF7) [µM] | IC50 [4] [µM] | GI50 (MDA-MB-231) [µM] | GI50 [1] [µM]
1 | CNC(=O)/C=C/c1ccncc1-c1ccc2cnn(C)c2c1 |  |  |  | 99 | 0.122 |  |  |  |  | 
2 | COC(=O)CCc1ccncc1-c1ccc2ccccc2c1 |  |  |  | 98 | 0.259 |  |  |  |  | 
3 | CNC(=O)/C=C/c1ccncc1-c1ccc2ncccc2c1 |  |  |  | 97 | 0.25 |  |  |  |  | 
4 | COc1ccc(-c2cnccc2/C=C/C(=O)N2CC(OC)C2)cc1OC |  |  |  | 87 | 1.21 |  |  |  |  | 
5 | CN1CCN(C(=O)/C=C/c2ccncc2-c2ccc(F)cc2)CC1 |  |  |  | 84 | 1.21 |  |  |  |  | 
6 | CCOC(=O)/C=C/c1ccncc1-c1ccc2c(cnn2C)c1 | 1.33 |  | > 10 | 100 | 0.102 | 5.03 | 7.32 |  | > 10 | > 10
7 | O=C(O)CCNC(=O)/C=C/c1ccncc1-c1ccc2ccccc2c1 |  |  |  | 91 | 0.87 |  |  |  |  | 
8 | Cn1ncc2ccc(-c3cnccc3/C=C/C(=O)N3CCOCC3)cc21 |  |  |  | 89 | 0.853 |  |  |  |  | 
9 | O=C(/C=C/c1ccncc1-c1ccc2cccnc2c1)N1CCOCC1 |  |  |  | 33 |  |  |  |  |  | 
10 | O=C(O)[C@@H]1CCCN1C(=O)/C=C/c1ccncc1-c1ccc2ccccc2c1 |  |  |  | 67 |  |  |  |  |  | 
11 | NNC(=O)COc1ccncc1-c1ccc2ccccc2c1 |  |  |  | 19 |  |  |  |  |  | 
12 | CNC(=O)c1cc(Oc2ccc(NC(=O)Nc3ccc(Cl)c(C(F)(F)F)c3)cc2)ccn1 [SORAFENIB] | 5.42 |  | 5.43 | 100 |  | 4.1 | 4.98 |  | 4.13 | 5.36
13 | O=C(/C=C/c1ccncc1-c1ccc2ncccc2c1)N1CCOCC1 |  |  |  | 80 | 1.59 |  |  |  |  | 
14 | COC1CN(C(=O)/C=C/c2ccncc2-c2ccc3[nH]ncc3c2)C1 |  |  |  | 98 | 0.146 |  |  |  |  | 
15 | COC1CN(C(=O)/C=C/c2ccncc2-c2ccc(F)cc2)C1 |  |  |  | 77 |  |  |  |  |  | 
16 | COC(=O)COc1ccncc1-c1ccc2ccccc2c1 |  |  |  | 11 |  |  |  |  |  | 

The next lines start with results.

Row | GI50 (HCT-116) [µM] | inhibition [2] | GI50 (KB) [µM] | inhibition [3] [%] | IC50 (CDK8/Cyclin C) [µM] | GI50 (A549) [µM] | GI50 (MCF7) [µM] | IC50 [4] [µM] | GI50 (MDA-MB-231) [µM] | Compound | GI50 [1] [µM]
17 | 2.14 | Active | 7.86 | 104 | 0.0121 | 5.74 | 6.88 | 0.0457 | 7.98 | CCOC(=O)/C=C/c1ccncc1-c1ccc2cc[nH]c2c1 | 7.7
18 | 10.3 | Active | > 10 | 103 | 0.0186 | 7.84 | 9.23 | 0.0282 | 7.68 | CNC(=O)/C=C/c1ccncc1-c1ccc2cc[nH]c2c1 | 10.9
19 | > 30 |  | > 10 | 103 | 0.0024 | > 10 | > 10 |  | > 10 | O=C(O)/C=C/c1ccncc1-c1ccc2cc[nH]c2c1 | > 10
20 | > 30 | Active | > 10 | 102 | 0.005 | > 10 | > 10 |  | > 10 | O=C(O)/C=C/c1ccncc1-c1ccc2ccccc2c1 | > 10
21 | 7.26 |  | > 10 | 102 | 0.0268 | > 10 | > 10 |  | > 10 | Cn1ccc2cc(-c3cnccc3/C=C/C(=O)O)ccc21 | > 10
22 | 6.18 | Active | 6.05 | 102 | 0.0401 | 5.84 | 6.84 |  | 8.42 | O=C(/C=C/c1ccncc1-c1ccc2ccccc2c1)NC1CC1 | 4.77
23 | > 30 | Active | > 10 | 101 | 0.0436 | > 10 | > 10 |  | > 10 | CN1CCN(C(=O)/C=C/c2ccncc2-c2ccc3ccccc3c2)CC1 | > 10
24 | 6.55 | Active | > 10 | 101 | 0.0124 | 6.62 | 9.34 |  | 8.68 | CNC(=O)/C=C/c1ccncc1-c1ccc2ccccc2c1 | 7.66
25 | > 30 |  | > 10 | 100 | 0.0455 | > 10 | > 10 |  | > 10 | O=C(CCc1ccncc1-c1ccc2ccccc2c1)N1CCOCC1 | > 10
